Measurements from patent US8058236B2, “Aqueous inhalation pharmaceutical composition” (Development Center for Biotechnology, priority 2005, dated 2011).

Legend:
Sprague-Dawley male rats [1] = assay type: in vivo, rat; settings: absorption enhancer in insulin formulation, pulmonary administration
Method: Sprague-Dawley male rats weighted 200-250 g were randomly divided into 7 groups. […] Group 1 was the control group, wherein each rat was administered with Formulation A only.
After administering the formulations to the lung for 0, 5, 15, 30, 60, 90, 120, 180, 240, and 300 minutes, 0.25 ml of blood sample was collected from each rat. After the pulmonary administration for 5 hours, an excess amount of pentobarbital sodium (3 ml) was injected into the femoral artery of the rats. After 5 minutes, the rats were bled and then pulmonary perfusion with phosphate buffer solution was performed.
The collected first 5 ml pulmonary perfusion samples were centrifuged at 350×g in 4° C. for 10 minutes. […]
Based on the pigmentation principle of Biuret reaction (British Pharmacopoeia, p. A23 (1998)), the amount of total protein was determined by measuring the value of OD546 with Autoanalyzer Hitachi 7150; then, the value was converted into the concentration of the protein (the results are shown in Table 3).
Based on the standard operation procedures of the GSCC (German Society of Clinical Chemistry; Recommendation of the German Society for Clinical Chemistry: Z. Klin. Chem. Klin. Biochem., 10, 287-288, 1972), the activity of LDH was determined by measuring the change of OD340 with Autoanalyzer Hitachi 7150; then, the change was converted into the activity of LDH (the results are shown in Table 3).

Sprague-Dawley male rats [2] = experiment: In vivo bioavailability study: plasma glucose decrease after pulmonary administration to rats; design: species or system rat; settings: enhancer added to insulin formulation
Method: Sprague-Dawley male rats weighted 200-250 g were randomly divided into 7 groups. According to the method disclosed in Enna, S. T. et al. (J. Physiol., 1972, 222: 409-414), after the rats were narcotized by abdominally injecting pentobarbital sodium (28.6 ml/kg), catheters were inserted into the trachea and the left femoral artery, respectively, from the cut neck. Group 1 was the control group, wherein each rat was administered with Formulation A only.
The collected blood samples were centrifuged at 3000 rpm in 4° C. for 15 minutes. The upper layer of the plasma was collected. […] The concentrations of insulin in the upper layer samples of plasma were determined by the utilization of a Rat Insulin ELISA Kit (Mercodia), and the pharmacokinetic parameters of the absorption enhancers were further analyzed.

Compound: CCCCCCCC/C=C\CCCCCCCC(=O)OCCOCC(OCCO)C1OCC(OCCO)C1OCCO (stereo not drawn) [Tween-80]
- toxic side effects in the lung (Sprague-Dawley male rats [1]): would not induce toxic side effects in the lung
- bioavailability of insulin, maximal increase by addition of absorption enhancer (Sprague-Dawley male rats [2]): 84.6%

Compound: LPTC-lauroyl [L-LPTC]
- toxic side effects in the lung (Sprague-Dawley male rats [1]): would not induce toxic side effects in the lung
